Experimental data published in patent US9909125B2, “Molecular targets for selective eradication of senescent cells” (Everon Biosciences, Inc., priority 2013, dated 2018).

Tested on: senescent human neonatal dermal fibroblasts
Assay: Crystal violet staining of shRNA-transduced senescent fibroblasts (FIG. 4)
Assay type: cell-based
Details: lentiviral shRNA, puromycin 72 hours, crystal violet at 20 days; senescence by bleomycin 10 μg/ml 24 hr + 10 days
Procedure: FIG. 4. Effect of selected shRNAs on viability of proliferating and senescent human neonatal dermal fibroblasts. Senescence was induced by treatment with bleomycin (10 μg/ml) for 24 hr followed by incubation for 10 days to establish senescent phenotype. (1) The proliferating and senescent cells were transduced with lentiviruses carrying both shRNA and mCherry constructs. Transduced cells were selected with puromycin for 72 hours and the presence of shRNA construct was confirmed by microscopic detection of mCherry fluorescence (see example of mCherry fluorescence in FIG. 4, panel 1). In 8 days for proliferating and 20 days for senescent cells, the cells were stained with crystal violet dye. The images of the live/dead cells were obtain using a digital camera (panels 2-4).
To confirm universal activity of identified target genes across different senescence models 60 candidate shRNA identified in all primary screenings were transduced to a secondary models of senescence: human diploid dermal fibroblasts induced to senescence by bleomycin treatment (DNA-damage induction) or senescence was induced by replicative exhaustion (replicative senescence).

Q: “FGF1: shRNA coding sequence targeting FGF1 (DNA CCTGATAACAAGTAAGGATATGTTAATATTCATAGCATATCCTTGCTTGTTATCAGG)” was tested. Which “effect on viability of senescent cells” value did it give?
A: Its value is “critical for viability of senescent cells”.

Q: “POU5F1: shRNA coding sequence targeting POU5F1 (DNA TCATTCACTAAGGAAGGAATTGTTAATATTCATAGCAATTCCTTCCTTAGTGAATGA)” was tested. Which “effect on viability of senescent cells” value did it give?
A: The value was “critical for viability of senescent cells”.
